{"source": "ChEMBL document CHEMBL1201862", "about": "“PubChem BioAssay data set” (2004)", "experiment_in_all_cases": "inhibition of tumour cell growth, NCI panel, 48 h", "key": {"A498": {"test_system": "A498"}, "ACHN": {"test_system": "ACHN"}, "DU-145": {"test_system": "DU-145"}, "HCC 2998": {"test_system": "HCC 2998"}, "K562": {"test_system": "K562"}, "MCF7": {"test_system": "MCF7"}, "MDA-MB-231": {"test_system": "MDA-MB-231"}, "NCI-H226": {"test_system": "NCI-H226"}, "OVCAR-4": {"test_system": "OVCAR-4"}, "SK-MEL-28": {"test_system": "SK-MEL-28"}, "SK-MEL-2": {"test_system": "SK-MEL-2"}, "SK-OV-3": {"test_system": "SK-OV-3"}, "SN12C": {"test_system": "SN12C"}, "SNB-19": {"test_system": "SNB-19"}, "SNB-75": {"test_system": "SNB-75"}, "T47D": {"test_system": "T47D"}, "TK-10": {"test_system": "TK-10"}, "UO-31": {"test_system": "UO-31"}, "HOP-62": {"test_system": "HOP-62"}, "Hs-578T": {"test_system": "Hs-578T"}, "MDA-MB-435": {"test_system": "MDA-MB-435"}, "OVCAR-5": {"test_system": "OVCAR-5"}, "SF-268": {"test_system": "SF-268"}, "786-0": {"test_system": "786-0"}, "A549": {"test_system": "A549"}, "CAKI-1": {"test_system": "CAKI-1"}, "CCRF-CEM": {"test_system": "CCRF-CEM"}, "COLO 205": {"test_system": "COLO 205"}, "EKVX": {"test_system": "EKVX"}, "HCT-116": {"test_system": "HCT-116"}, "HCT-15": {"test_system": "HCT-15"}, "HL-60": {"test_system": "HL-60"}, "HOP-92": {"test_system": "HOP-92"}, "HT-29": {"test_system": "HT-29"}, "IGROV-1": {"test_system": "IGROV-1"}, "LOX IMVI": {"test_system": "LOX IMVI"}, "M14": {"test_system": "M14"}, "MOLT-4": {"test_system": "MOLT-4"}, "Malme-3M": {"test_system": "Malme-3M"}, "NCI-H23": {"test_system": "NCI-H23"}, "NCI-H460": {"test_system": "NCI-H460"}, "NCI-H522": {"test_system": "NCI-H522"}, "NCI/ADR-RES": {"test_system": "NCI/ADR-RES"}, "OVCAR-3": {"test_system": "OVCAR-3"}, "OVCAR-8": {"test_system": "OVCAR-8"}, "PC-3": {"test_system": "PC-3"}, "RPMI-8226": {"test_system": "RPMI-8226"}, "RXF 393": {"test_system": "RXF 393"}, "SF-295": {"test_system": "SF-295"}, "SF-539": {"test_system": "SF-539"}, "SK-MEL-5": {"test_system": "SK-MEL-5"}, "SR": {"test_system": "SR"}, "SW-620": {"test_system": "SW-620"}, "U-251": {"test_system": "U-251"}, "UACC-257": {"test_system": "UACC-257"}}, "note": "“And” between values parts separate entries of the source, which are not always exact repeats. Identical values can stand only once.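 Tested at 5 concentrations; 48 h exposure; 96-well plates; endpoints linearly interpolated, else capped at highest concentration. GI50: concentration for 50% inhibition of growth.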 The source made the active and inactive calls. Cut-off read from the data, not from the text of the source: active = GI50 up to about 1.1 µM and inactive = higher."}
{"compound": "C=CCOC(=O)CCCCCCCCCCCCCCCOC(=O)C1=C(CCC[C@@H](C)O[Si](C)(C)C(C)(C)C)N=C(N)N2[C@H](CC3(CC/C=C\\[C@H](CC)O[Si](C(C)C)(C(C)C)C(C)C)OCCO3)CC[C@@H]12", "values": [{"measurement": "GI50", "setting": "A498", "result": "> 100 µM (inactive)"}, {"measurement": "GI50", "setting": "ACHN", "result": "> 100 µM (inactive)"}, {"measurement": "GI50", "setting": "DU-145", "result": "> 100 µM (inactive)"}, {"measurement": "GI50", "setting": "HCC 2998", "result": "49.3 µM (inactive)"}, {"measurement": "GI50", "setting": "K562", "result": "< 0.01 µM (active)"}, {"measurement": "GI50", "setting": "MCF7", "result": "31.9 µM (inactive)"}, {"measurement": "GI50", "setting": "MDA-MB-231", "result": "> 100 µM (inactive)"}, {"measurement": "GI50", "setting": "NCI-H226", "result": "> 100 µM (inactive)"}, {"measurement": "GI50", "setting": "OVCAR-4", "result": "> 100 µM (inactive)"}, {"measurement": "GI50", "setting": "SK-MEL-28", "result": "> 100 µM (inactive)"}, {"measurement": "GI50", "setting": "SK-MEL-2", "result": "> 100 µM (inactive)"}, {"measurement": "GI50", "setting": "SK-OV-3", "result": "> 100 µM (inactive)"}, {"measurement": "GI50", "setting": "SN12C", "result": "> 100 µM (inactive)"}, {"measurement": "GI50", "setting": "SNB-19", "result": "> 100 µM (inactive)"}, {"measurement": "GI50", "setting": "SNB-75", "result": "83.8 µM (inactive)"}, {"measurement": "GI50", "setting": "T47D", "result": "> 100 µM (inactive)"}, {"measurement": "GI50", "setting": "TK-10", "result": "> 100 µM (inactive)"}, {"measurement": "GI50", "setting": "UO-31", "result": "63.5 µM (inactive)"}]}
{"compound": "COC(=O)C1=COC(C)C2CN3CCc4c([nH]c5ccccc45)C3CC12", "note": "(centres undefined)", "values": [{"measurement": "GI50", "setting": "HOP-62", "result": "> 100 µM (inactive) and 55.1 µM (inactive)"}, {"measurement": "GI50", "setting": "Hs-578T", "result": "49 µM (inactive) and 26 µM (inactive)"}, {"measurement": "GI50", "setting": "MDA-MB-435", "result": "52.1 µM (inactive)"}, {"measurement": "GI50", "setting": "OVCAR-5", "result": "> 100 µM (inactive)"}, {"measurement": "GI50", "setting": "SF-268", "result": "54.1 µM (inactive)"}, {"measurement": "GI50", "setting": "SK-OV-3", "result": "58.7 µM (inactive)"}, {"measurement": "GI50", "setting": "SNB-19", "result": "84.5 µM (inactive)"}]}
{"compound": "O=C(/N=C1\\SCCN1C(=O)C(C(F)(F)F)C(F)(F)F)C(C(F)(F)F)C(F)(F)F", "values": [{"measurement": "GI50", "setting": "786-0", "result": "> 100 µM (inactive)"}, {"measurement": "GI50", "setting": "A498", "result": "> 100 µM (inactive)"}, {"measurement": "GI50", "setting": "A549", "result": "> 100 µM (inactive)"}, {"measurement": "GI50", "setting": "ACHN", "result": "> 100 µM (inactive)"}, {"measurement": "GI50", "setting": "CAKI-1", "result": "> 100 µM (inactive)"}, {"measurement": "GI50", "setting": "CCRF-CEM", "result": "> 100 µM (inactive)"}, {"measurement": "GI50", "setting": "COLO 205", "result": "> 100 µM (inactive)"}, {"measurement": "GI50", "setting": "EKVX", "result": "> 100 µM (inactive)"}, {"measurement": "GI50", "setting": "HCC 2998", "result": "> 100 µM (inactive)"}, {"measurement": "GI50", "setting": "HCT-116", "result": "> 100 µM (inactive)"}, {"measurement": "GI50", "setting": "HCT-15", "result": "> 100", "unit": "µM"}, {"measurement": "GI50", "setting": "HL-60", "result": "> 100 µM (inactive)"}, {"measurement": "GI50", "setting": "HOP-62", "result": "> 100 µM (inactive)"}, {"measurement": "GI50", "setting": "HOP-92", "result": "> 100 µM (inactive)"}, {"measurement": "GI50", "setting": "HT-29", "result": "> 100 µM (inactive)"}, {"measurement": "GI50", "setting": "IGROV-1", "result": "> 100 µM (inactive)"}, {"measurement": "GI50", "setting": "K562", "result": "> 100 µM (inactive)"}, {"measurement": "GI50", "setting": "LOX IMVI", "result": "> 100 µM (inactive)"}, {"measurement": "GI50", "setting": "M14", "result": "> 100 µM (inactive)"}, {"measurement": "GI50", "setting": "MCF7", "result": "> 100 µM (inactive)"}, {"measurement": "GI50", "setting": "MDA-MB-231", "result": "> 100 µM (inactive)"}, {"measurement": "GI50", "setting": "MDA-MB-435", "result": "> 100 µM (inactive)"}, {"measurement": "GI50", "setting": "MOLT-4", "result": "> 100 µM (inactive)"}, {"measurement": "GI50", "setting": "Malme-3M", "result": "> 100 µM (inactive)"}, {"measurement": "GI50", "setting": "NCI-H226", "result": "> 100 µM (inactive)"}, {"measurement": "GI50", "setting": "NCI-H23", "result": "> 100 µM (inactive)"}, {"measurement": "GI50", "setting": "NCI-H460", "result": "> 100 µM (inactive)"}, {"measurement": "GI50", "setting": "NCI-H522", "result": "> 100 µM (inactive)"}, {"measurement": "GI50", "setting": "NCI/ADR-RES", "result": "> 100 µM (inactive)"}, {"measurement": "GI50", "setting": "OVCAR-3", "result": "> 100 µM (inactive)"}, {"measurement": "GI50", "setting": "OVCAR-4", "result": "> 100 µM (inactive)"}, {"measurement": "GI50", "setting": "OVCAR-5", "result": "> 100 µM (inactive)"}, {"measurement": "GI50", "setting": "OVCAR-8", "result": "> 100 µM (inactive)"}, {"measurement": "GI50", "setting": "PC-3", "result": "> 100 µM (inactive)"}, {"measurement": "GI50", "setting": "RPMI-8226", "result": "> 100 µM (inactive)"}, {"measurement": "GI50", "setting": "RXF 393", "result": "> 100 µM (inactive)"}, {"measurement": "GI50", "setting": "SF-295", "result": "> 100 µM (inactive)"}, {"measurement": "GI50", "setting": "SF-539", "result": "> 100 µM (inactive)"}, {"measurement": "GI50", "setting": "SK-MEL-28", "result": "> 100 µM (inactive)"}, {"measurement": "GI50", "setting": "SK-MEL-2", "result": "> 100 µM (inactive)"}, {"measurement": "GI50", "setting": "SK-MEL-5", "result": "> 100 µM (inactive)"}, {"measurement": "GI50", "setting": "SK-OV-3", "result": "> 100 µM (inactive)"}, {"measurement": "GI50", "setting": "SNB-19", "result": "> 100 µM (inactive)"}, {"measurement": "GI50", "setting": "SR", "result": "> 100 µM (inactive)"}, {"measurement": "GI50", "setting": "SW-620", "result": "> 100 µM (inactive)"}, {"measurement": "GI50", "setting": "TK-10", "result": "> 100 µM (inactive)"}, {"measurement": "GI50", "setting": "U-251", "result": "> 100 µM (inactive)"}, {"measurement": "GI50", "setting": "UACC-257", "result": "> 100 µM (inactive)"}, {"measurement": "GI50", "setting": "UO-31", "result": "> 100 µM (inactive)"}]}
